Laboratory results from ChEMBL document CHEMBL1201862, “PubChem BioAssay data set” (2004).
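96-well plates; 48 h exposure; 5 concentrations. Endpoints by linear interpolation between flanking doses. Not reached: highest tested concentration assigned. Here, GI50 denotes the concentration required for 50% inhibition of growth.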 The source made the active and inactive calls. No stated cut-off is given here; in the data, active = GI50 up to about 1.1 µM and inactive = higher.

Assays:
Test in all cases: NCI tumour cell line growth inhibition, 48 h
[1] = system: A498
[2] = system: ACHN
[3] = system: CAKI-1
[4] = system: HL-60
[5] = system: HT-29
[6] = system: KM12
[7] = system: M14
[8] = system: NCI-H460
[9] = system: OVCAR-5
[10] = system: OVCAR-8
[11] = system: SF-268
[12] = system: SF-295
[13] = system: SK-MEL-28
[14] = system: SK-MEL-5
[15] = system: SK-OV-3
[16] = system: SN12C
[17] = system: SR
[18] = system: UACC-62

Measured: GI50

O=[N+]([O-])c1cc(I)cc(/C=N/NS(=O)(=O)c2ccc(Cl)cc2)c1O
inactive: [1] 22.9 µM | [2] 22.8 µM | [3] 22.3 µM | [4] 27.7 µM | [5] 16.3 µM | [6] 18.2 µM | [7] 25.2 µM | [8] 19.9 µM | [9] 25 µM | [10] 20.7 µM | [11] 36.9 µM | [12] 25.6 µM | [13] 27.7 µM | [14] 18 µM | [15] 24.7 µM | [16] 23.7 µM | [17] 21.4 µM | [18] 26.1 µM

CC(=O)O[C@]1(C)CCC2C(C)C(=O)OC2C2C(C)[C@@H](O)CC21 (some centres not stated)
inactive: [1] 19.8 µM | [2] 29.3 µM | [3] 47.2 µM | [4] 14.2 µM | [5] 31.5 µM | [6] 49.8 µM | [7] 20.8 µM | [8] 66.5 µM | [9] 29.8 µM | [10] 87.9 µM | [11] 33.3 µM | [12] 72.3 µM | [13] 34 µM | [14] 32.1 µM | [15] 49.9 µM | [16] 35.6 µM | [17] 3.56 µM | [18] 33.9 µM

COC(=O)NC(=O)c1cn(C2CCCCC2)c(=O)[nH]c1=O
inactive: [1] > 100 µM | [2] > 100 µM | [3] > 100 µM | [4] > 100 µM | [5] > 100 µM | [6] > 100 µM | [7] > 100 µM | [8] > 100 µM | [9] > 100 µM | [10] > 100 µM | [11] > 100 µM | [12] > 100 µM | [13] > 100 µM | [14] > 100 µM | [15] > 100 µM | [16] > 100 µM | [17] > 100 µM | [18] > 100 µM

O=C(OCCOCBr)c1ccccc1
inactive: [1] > 100 µM | [2] > 100 µM | [3] > 100 µM | [4] > 100 µM | [5] > 100 µM | [6] > 100 µM | [7] > 100 µM | [8] > 100 µM | [9] > 100 µM | [10] > 100 µM | [11] > 100 µM | [12] > 100 µM | [13] > 100 µM | [14] > 100 µM | [15] > 100 µM | [16] > 100 µM | [17] > 100 µM | [18] > 100 µM
